Source: PubChem BioAssay (NCI)
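Assay format: 96-well plates, 48-hour exposure. TGI: total growth inhibition.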

Assays:
Test in all cases: NCI-60 cell line screen, 48 h
SF-295 CNS = test system: SF-295 CNS
786-0 renal = test system: 786-0 renal
UACC-257 melanoma = test system: UACC-257 melanoma
HT29 colon = test system: HT29 colon
PC-3 prostate = test system: PC-3 prostate
MDA-N = test system: MDA-N
HOP-92 NSCLC = test system: HOP-92 NSCLC
IGROV1 ovarian = test system: IGROV1 ovarian
SNB-75 CNS = test system: SNB-75 CNS
OVCAR-8 ovarian = test system: OVCAR-8 ovarian
HS 578T breast = test system: HS 578T breast
HOP-62 NSCLC = test system: HOP-62 NSCLC
SN12C renal = test system: SN12C renal
OVCAR-5 ovarian = test system: OVCAR-5 ovarian
MOLT-4 leukemia = test system: MOLT-4 leukemia
NCI/ADR-RES ovarian = test system: NCI/ADR-RES ovarian
MCF7 breast = test system: MCF7 breast
U251 CNS = test system: U251 CNS
MDA-MB-231 breast = test system: MDA-MB-231 breast
SNB-19 CNS = test system: SNB-19 CNS
HL-60(TB) leukemia = test system: HL-60(TB) leukemia
HCT-15 colon = test system: HCT-15 colon
K-562 leukemia = test system: K-562 leukemia
SF-539 CNS = test system: SF-539 CNS
TK-10 renal = test system: TK-10 renal
SK-OV-3 ovarian = test system: SK-OV-3 ovarian
CAKI-1 renal = test system: CAKI-1 renal
SW-620 colon = test system: SW-620 colon
ACHN renal = test system: ACHN renal
OVCAR-4 ovarian = test system: OVCAR-4 ovarian
UACC-62 melanoma = test system: UACC-62 melanoma
RXF 393 renal = test system: RXF 393 renal
A498 renal = test system: A498 renal
MDA-MB-435 = test system: MDA-MB-435
SK-MEL-2 melanoma = test system: SK-MEL-2 melanoma
BT-549 breast = test system: BT-549 breast
NCI-H522 lung = test system: NCI-H522 lung
LOX IMVI melanoma = test system: LOX IMVI melanoma
KM12 colon = test system: KM12 colon
OVCAR-3 ovarian = test system: OVCAR-3 ovarian
MALME-3M melanoma = test system: MALME-3M melanoma
NCI-H460 lung = test system: NCI-H460 lung
NCI-H226 lung = test system: NCI-H226 lung
CCRF-CEM leukemia = test system: CCRF-CEM leukemia
SF-268 CNS = test system: SF-268 CNS
A549 NSCLC = test system: A549 NSCLC
SR leukemia = test system: SR leukemia
SK-MEL-5 melanoma = test system: SK-MEL-5 melanoma
SK-MEL-28 melanoma = test system: SK-MEL-28 melanoma
EKVX NSCLC = test system: EKVX NSCLC
COLO 205 colon = test system: COLO 205 colon
DU-145 prostate = test system: DU-145 prostate
T-47D breast = test system: T-47D breast
HCT-116 colon = test system: HCT-116 colon
M14 melanoma = test system: M14 melanoma
UO-31 renal = test system: UO-31 renal
RPMI-8226 leukemia = test system: RPMI-8226 leukemia
NCI-H23 lung = test system: NCI-H23 lung
HCC-2998 colon = test system: HCC-2998 colon

Measured: TGI

CC(C)CNC(=O)O
not listed: HCC-2998 colon
> 100 µM: all other assays above

COC(=O)[C@H](Cc1ccccc1)NC(=O)[C@H](Cc1ccccc1)NC(=O)[C@@H]1CCCN1C(=O)N[C@H]1C2C=CC(C2)C1C(=O)N1CCC[C@H]1C(=O)N[C@@H](C)C(=O)N[C@H](C(=O)OC)C(C)C (stereo partly specified)
85.6 µM: MOLT-4 leukemia
56.4 µM: CCRF-CEM leukemia
not listed: SF-539 CNS | SK-MEL-2 melanoma | RPMI-8226 leukemia | HCC-2998 colon
> 100 µM: all other assays above

C=CCSS/C=C/CS(=O)CC=C (stereo unspecified)
> 74.6 µM: HT29 colon
33.4 µM: 786-0 renal
49.9 µM: SK-MEL-28 melanoma
35.9 µM: MDA-N
37.3 µM: MDA-MB-435
> 77.4 µM: HS 578T breast
> 62.7 µM: CAKI-1 renal
51.6 µM: SF-539 CNS
97.6 µM: SK-MEL-2 melanoma
44.1 µM: M14 melanoma
66.5 µM: COLO 205 colon
> 65.9 µM: SN12C renal
37.1 µM: OVCAR-8 ovarian
48.8 µM: RPMI-8226 leukemia
56.3 µM: MDA-MB-231 breast
99.3 µM: OVCAR-4 ovarian
55.6 µM: RXF 393 renal
74.5 µM: NCI/ADR-RES ovarian
98.8 µM: OVCAR-5 ovarian
> 77.9 µM: K-562 leukemia
> 55.6 µM: SR leukemia
> 95.9 µM: OVCAR-3 ovarian
29.9 µM: LOX IMVI melanoma
60.7 µM: SF-268 CNS
32.3 µM: NCI-H522 lung
22.7 µM: SW-620 colon
> 29.5 µM: MOLT-4 leukemia
27.3 µM: HCT-116 colon
> 56.7 µM: BT-549 breast
> 82.7 µM: UACC-62 melanoma
> 100 µM: all other assays above

Cc1ccc([C@H]2CC(=O)C[C@H](c3ccc(C)cc3)C23C(=O)c2ccccc2C3=O)cc1
59.9 µM: CCRF-CEM leukemia
79.7 µM: SNB-19 CNS
47.2 µM: OVCAR-4 ovarian
49.7 µM: UACC-257 melanoma | HOP-92 NSCLC
34.3 µM: SR leukemia
35.6 µM: U251 CNS
33.2 µM: HL-60(TB) leukemia
51.9 µM: SF-295 CNS
84.5 µM: PC-3 prostate
30.2 µM: NCI/ADR-RES ovarian
34.1 µM: SNB-75 CNS
41.8 µM: HOP-62 NSCLC
39 µM: RXF 393 renal
31.7 µM: 786-0 renal
26.5 µM: NCI-H522 lung
58.7 µM: HS 578T breast
> 100 µM: all other assays above

C=CCCC(=O)CC(O)(C(F)(F)F)C(F)(F)F
not listed: HOP-62 NSCLC | SN12C renal | SF-268 CNS
> 100 µM: all other assays above

COc1ccc(/C=N/N=C(\N)NO)c(O)c1
2.42 µM: SNB-75 CNS
4.49 µM: MDA-MB-435
9.58 µM: CAKI-1 renal
> 10 µM: all other assays above
